Assay results reported in patent US9765056B2, “Indole and pyrrole compounds, a process for their preparation and pharmaceutical compositions containing them” (LES LABORATOIRES SERVIER, priority 2013, dated 2017).
Structures can show the parent of a compound that is named as a salt.

Assays:
[1] = tested on: RS4;11 leukaemia tumour line; assay: In vitro cytotoxicity, Microculture Tetrazolium Assay (MTT); assay type: cell-based; settings: Homo sapiens; RS4;11 cells, 48 hours exposure
Experimental: The cytotoxicity studies were carried out on the RS4;11 leukaemia tumour line.
The cells are distributed onto microplates and exposed to the test compounds for 48 hours. The cell viability is then quantified by a colorimetric assay, the Microculture Tetrazolium Assay (Cancer Res., 1987, 47, 939-942).

Bcl-2 protein = Bcl-2 protein (histag-Bcl-2, UniProtKB P10415) (Homo sapiens (Human), UniProt P10415); assay: Inhibition of Bcl-2 by the fluorescence polarisation technique; assay type: binding; settings: fluorescence polarisation test; method A, or method B where underlined (underlining not visible); read-out: IC50 (nM) Bcl-2 FP
Description: Inhibition of Bcl-2 by the fluorescence polarisation technique

Chain of Bcl-2 protein (P10415 whole entry): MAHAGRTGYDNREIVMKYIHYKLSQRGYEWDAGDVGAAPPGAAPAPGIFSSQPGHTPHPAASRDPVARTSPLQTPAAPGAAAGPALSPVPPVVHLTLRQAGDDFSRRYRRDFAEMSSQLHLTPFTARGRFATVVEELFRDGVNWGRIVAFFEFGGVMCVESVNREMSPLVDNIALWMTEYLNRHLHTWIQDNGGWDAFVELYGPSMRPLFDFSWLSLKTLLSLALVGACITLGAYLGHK

Row | IC50 (Bcl-2 protein) [nM] | Compound | IC50 [1] [nM]
1 | 12.2 | COc1cc(-n2cc(C(=O)N(c3ccccc3)c3ccc(O)cc3)c3ccccc32)c(C(=O)N2Cc3ccccc3C[C@H]2CN)cc1O [Example 145, 1-{2-[(3S)-3-(Aminomethyl)-1,2,3,4-tetrahydroisoquinoline-2-carbonyl]-4-hydroxy-5-methoxyphenyl}-N-(4-hydroxyphenyl)-N-phenyl-1H-indole-3-carboxamide] | 1180
2 | 17.5 | CN1CCN(C[C@@H]2Cc3ccccc3CN2C(=O)c2ccc(Cl)cc2-n2cc(C(=O)N(c3ccccc3)c3ccccc3)c3ccccc32)CC1 [Example 178, 1-{5-Chloro-2-[(3S)-3-[(4-methylpiperazin-1-yl)methyl]-1,2,3,4-tetrahydroisoquinoline-2-carbonyl]phenyl}-N,N-diphenyl-1H-indole-3-carboxamide dihydrochloride] | 812
3 | 8.3 | CN1CCN(C[C@@H]2Cc3ccccc3CN2C(=O)c2ccc(Br)cc2-n2cc(C(=O)N(c3ccc(O)cc3)c3ccc(F)cc3)c3ccccc32)CC1 [Example 71, 1-(5-Bromo-2-{[(3S)-3-[(4-methylpiperazin-1-yl)methyl]-3,4-dihydroisoquinolin-2(1H)-yl]carbonyl}phenyl)-N-(4-fluorophenyl)-N-(4-hydroxyphenyl)-1H-indole-3-carboxamide] | 196
4 | 448 | CCCCN(CCCC)C(=O)c1nn(-c2ccccc2C(=O)N2Cc3ccccc3C[C@H]2CN)c2ccccc12 [Example 121, 1-{2-[(3S)-3-(Aminomethyl)-1,2,3,4-tetrahydroisoquinoline-2-carbonyl]-phenyl}-N,N-dibutyl-1H-indazole-3-carboxamide] | 8770
5 | 13.4 | Cc1ccc(N(C(=O)c2cn(-c3cc(Br)ccc3C(=O)N3Cc4ccccc4C[C@H]3CN3CCN(C)CC3)c3ccccc23)c2ccc(O)cc2)cc1 [Example 57, 1-(5-Bromo-2-{[(3S)-3-[(4-methylpiperazin-1-yl)methyl]-3,4-dihydroisoquinolin-2(1H)-yl]carbonyl}phenyl)-N-(4-hydroxyphenyl)-N-(4-methylphenyl)-1H-indole-3-carboxamide] | 267
6 | 10 | CCCCN(C(=O)c1cn(-c2cc(OC)c(O)cc2C(=O)N2Cc3ccccc3C[C@H]2CN2CCN(C)CC2)c2ccccc12)c1ccc(O)cc1 [Example 203, N-Butyl-1-{4-hydroxy-5-methoxy-2-[(3S)-3-[(4-methylpiperazin-1-yl)methyl]-1,2,3,4-tetrahydroisoquinoline-2-carbonyl]phenyl}-N-(4-hydroxyphenyl)-1H-indole-3-carboxamide dihydrochloride] | 454
7 | 108 | COc1ccc(C(=O)N2Cc3ccccc3C[C@H]2CN2CCCCC2)c(-n2cc(C(=O)N(c3ccccc3)c3ccc(O)cc3)c3ccccc32)c1 [Example 169, N-(4-Hydroxyphenyl)-1-{5-methoxy-2-[(3S)-3-(piperidin-1-ylmethyl)-1,2,3,4-tetrahydroisoquinoline-2-carbonyl]phenyl}-N-phenyl-1H-indole-3-carboxamide hydrochloride] | 854
8 | 25.1 | COc1ccc(C(=O)N2Cc3ccccc3C[C@H]2CN(C)C)c(-n2cc(C(=O)N(c3ccccc3)c3ccc(O)cc3)c3ccccc32)c1 [Example 175, 1-{2-[(3S)-3-[(Dimethylamino)methyl]-1,2,3,4-tetrahydroisoquinoline-2-carbonyl]-5-methoxyphenyl}-N-(4-hydroxyphenyl)-N-phenyl-1H-indole-3-carboxamide] | 460
9 | 245 | Cc1cc(C(=O)N(c2ccccc2)c2ccc(O)cc2)cn1-c1ccc(OC(F)(F)F)cc1C(=O)N1Cc2ccccc2C[C@H]1CN1CCN(C)CC1 [Example 19, N-(4-Hydroxyphenyl)-5-methyl-1-[2-{[(3S)-3-[(4-methylpiperazin-1-yl)methyl]-3,4-dihydroisoquinolin-2(1H)-yl]carbonyl}-4-(trifluoromethoxy)phenyl]-N-phenyl-1H-pyrrole-3-carboxamide] | 2360
10 | 35.5 | Cc1cc(C(=O)N(c2ccccc2)c2ccc(O)cc2)cn1-c1cc2c(cc1C(=O)N1Cc3ccccc3C[C@H]1CN1CCOCC1)OCO2 [Example 108, N-(4-Hydroxyphenyl)-5-methyl-1-(6-{[(3S)-3-(morpholin-4-ylmethyl)-3,4-dihydroisoquinolin-2(1H)-yl]carbonyl}-1,3-benzodioxol-5-yl)-N-phenyl-1H-pyrrole-3-carboxamide hydrochloride] | 544
11 | 7.7 | Cc1cc(C(=O)N(c2ccc(O)cc2)c2ccc(O)cc2)cn1-c1cc(Br)ccc1C(=O)N1Cc2ccccc2C[C@H]1CN1CCN(C)CC1 [Example 61, 1-(5-Bromo-2-{[(3S)-3-[(4-methylpiperazin-1-yl)methyl]-3,4-dihydroisoquinolin-2(1H)-yl]carbonyl}phenyl)-N,N-bis(4-hydroxyphenyl)-5-methyl-1H-pyrrole-3-carboxamide] | 204
12 | 99.1 | Cc1cc(C(=O)N(c2ccc(O)cc2)c2ccc3[nH]ccc3c2)cn1-c1cc(Br)ccc1C(=O)N1Cc2ccccc2C[C@H]1C(=O)N1CCN(C)CC1 [Example 101, 1-(5-Bromo-2-{[(3S)-3-[(4-methylpiperazin-1-yl)carbonyl]-3,4-dihydroisoquinolin-2(1H)-yl]carbonyl}phenyl)-N-(4-hydroxyphenyl)-N-(1H-indol-5-yl)-5-methyl-1H-pyrrole-3-carboxamide] | 1880
13 | 5.4 | Cc1ccc(N(C(=O)c2cn(-c3cc4c(cc3C(=O)N3Cc5ccccc5C[C@H]3CN3CCN(C)CC3)OCO4)c3ccccc23)c2ccc(O)cc2)cc1F [Example 52, N-(3-Fluoro-4-methylphenyl)-N-(4-hydroxyphenyl)-1-(6-{[(3S)-3-[(4-methylpiperazin-1-yl)methyl]-3,4-dihydroisoquinolin-2(1H)-yl]carbonyl}-1,3-benzodioxol-5-yl)-1H-indole-3-carboxamide] | 77.3
14 | 168 | O=C(c1cn(-c2ccccc2C(=O)N2Cc3ccccc3C[C@H]2CN2CCCCC2)c2ccccc12)N(c1ccccc1)c1ccc(O)cc1 [Example 173, N-(4-Hydroxyphenyl)-N-phenyl-1-{2-[(3S)-3-(piperidin-1-ylmethyl)-1,2,3,4-tetrahydroisoquinoline-2-carbonyl]phenyl}-1H-indole-3-carboxamide] | 2040
15 | 7.9 | Cc1cc(C(=O)N(c2ccc(O)cc2)c2ccc3c(ccn3C)c2)cn1-c1cc2c(cc1C(=O)N1Cc3ccccc3C[C@H]1CN(C)C)OCO2 [Example 94, 1-(6-{[(3S)-3-[(Dimethylamino)methyl]-3,4-dihydroisoquinolin-2(1H)-yl]carbonyl}-1,3-benzodioxol-5-yl)-N-(4-hydroxyphenyl)-5-methyl-N-(1-methyl-1H-indol-5-yl)-1H-pyrrole-3-carboxamide hydrochloride] | 118
16 | 4.3 | COc1ccc(C(=O)N2Cc3ccccc3C[C@H]2CN2CCN(C)CC2)c(-n2cc(C(=O)N(c3ccc(O)cc3)c3ccc4c(ccn4C)c3)c3ccccc32)c1 [Example 205, N-(4-Hydroxyphenyl)-1-{5-methoxy-2-[(3S)-3-[(4-methylpiperazin-1-yl)methyl]-1,2,3,4-tetrahydroisoquinoline-2-carbonyl]phenyl}-N-(1-methyl-1H-indol-5-yl)-1H-indole-3-carboxamide] | 123
17 | 238 | Cc1cc(C(=O)N(c2ccccc2)c2ccc(O)cc2)cn1-c1cc(Br)ccc1C(=O)N1Cc2ccccc2C[C@H]1CN1C[C@H]2CCC[C@H]2C1 [Example 38, 1-(5-Bromo-2-{[(3S)-3-[(3aR,6aS)-hexahydrocyclopenta[c]pyrrol-2(1H)-ylmethyl]-3,4-dihydroisoquinolin-2(1H)-yl]carbonyl}phenyl)-N-(4-hydroxyphenyl)-5-methyl-N-phenyl-1H-pyrrole-3-carboxamide] | 1780
18 | 9.8 | CN1CCN(C[C@@H]2Cc3ccccc3CN2C(=O)c2cc3c(cc2-n2cc(C(=O)N(c4ccccc4)c4ccc(O)cc4)c4ccc(F)cc42)OCO3)CC1 [Example 197, 6-Fluoro-N-(4-hydroxyphenyl)-1-{6-[(3S)-3-[(4-methylpiperazin-1-yl)methyl]-1,2,3,4-tetrahydroisoquinoline-2-carbonyl]-2H-1,3-benzodioxol-5-yl}-N-phenyl-1H-indole-3-carboxamide] | 328
19 | 4.2 | Cc1cc(C(=O)N(c2ccc(O)cc2)c2ccc3c(ccn3C)c2)cn1-c1cc(Cl)ccc1C(=O)N1Cc2ccccc2C[C@H]1CN1CCN(C)CC1 [Example 89, 1-(5-Chloro-2-{[(3S)-3-[(4-methylpiperazin-1-yl)methyl]-3,4-dihydroisoquinolin-2(1H)-yl]carbonyl}phenyl)-N-(4-hydroxyphenyl)-5-methyl-N-(1-methyl-1H-indol-5-yl)-1H-pyrrole-3-carboxamide] | 59.8
20 | 20 | CN1CCN(C[C@@H]2Cc3ccccc3CN2C(=O)c2ccc(Br)cc2-n2cc(C(=O)N(c3ccc(O)cc3)c3ccc(O)cc3)c3ccccc32)CC1 [Example 54, 1-(5-Bromo-2-{[(3S)-3-[(4-methylpiperazin-1-yl)methyl]-3,4-dihydroisoquinolin-2(1H)-yl]carbonyl}phenyl)-N,N-bis(4-hydroxyphenyl)-1H-indole-3-carboxamide] | 103
21 | 10.2 | CN1CCN(C[C@@H]2Cc3ccccc3CN2C(=O)c2ccc(Cl)cc2-n2cc(C(=O)N(c3ccccc3)c3ccc(O)cc3)c3ccccc32)CC1 [Example 159, 1-{5-Chloro-2-[(3S)-3-[(4-methylpiperazin-1-yl)methyl]-1,2,3,4-tetrahydroisoquinoline-2-carbonyl]phenyl}-N-(4-hydroxyphenyl)-N-phenyl-1H-indole-3-carboxamide] | 191
